Results published in paper PMC8161495 (ACS Central Science, 2021).

Biological target: T1, full-length rat TRPV2 (rTRPV2) (Rattus norvegicus, UniProt Q9WUD2)
T1 sequence (Q9WUD2 1-761): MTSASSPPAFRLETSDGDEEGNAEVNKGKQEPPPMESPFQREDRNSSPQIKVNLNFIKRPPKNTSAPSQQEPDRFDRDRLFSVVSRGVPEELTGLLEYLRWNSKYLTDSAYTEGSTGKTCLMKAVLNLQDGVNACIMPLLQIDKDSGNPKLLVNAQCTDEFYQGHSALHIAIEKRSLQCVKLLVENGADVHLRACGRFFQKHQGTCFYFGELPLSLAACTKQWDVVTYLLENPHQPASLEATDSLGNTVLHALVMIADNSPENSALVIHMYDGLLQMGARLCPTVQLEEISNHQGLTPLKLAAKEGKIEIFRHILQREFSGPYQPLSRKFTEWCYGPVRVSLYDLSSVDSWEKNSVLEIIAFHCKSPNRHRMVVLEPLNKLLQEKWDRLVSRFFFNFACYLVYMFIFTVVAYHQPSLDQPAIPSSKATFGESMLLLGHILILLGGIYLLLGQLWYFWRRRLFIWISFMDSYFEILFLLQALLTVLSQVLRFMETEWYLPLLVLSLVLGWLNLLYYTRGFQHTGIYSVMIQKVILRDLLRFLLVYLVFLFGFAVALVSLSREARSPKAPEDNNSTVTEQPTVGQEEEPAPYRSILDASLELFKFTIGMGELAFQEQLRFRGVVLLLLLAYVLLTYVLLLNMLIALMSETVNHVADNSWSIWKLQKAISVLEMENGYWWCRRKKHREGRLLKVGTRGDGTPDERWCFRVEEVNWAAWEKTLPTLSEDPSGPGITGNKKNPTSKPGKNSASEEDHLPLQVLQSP
Test: cryo-EM structure
Type: binding

## COc1cc(/C=C/C(=O)N2CCC=CC2=O)cc(OC)c1OC [PL, piperlongumine]
  cryo-EM structure (3.5 Å, C4 symmetry): The cryo-EM density map and atomic coordinates of PL-bound rat TRPV2 are deposited
